Assay results taken from patent US20250282818A1, “SYRBACTIN MACROLACTAMS AND UNNATURAL ANALOGS AS PROTEASOME INHIBITORS FOR THE TREATMENT OF MULTIPLE MYELOMA AND CHEMOENZYMATIC SYNTHESIS THEREOF” (UNIVERSITY OF FLORIDA RESEARCH FOUNDATION,INCORPORATED, priority 2022, published 2025).
“Also recorded” adds a separate entry of the source.

Assays:
[1] = molecular target: β5 subunit of purified yeast proteasome (Saccharomyces cerevisiae, UniProt P23724+P30656); settings: literature ref. 8; cited from earlier work
proteasome subunit β5 = molecular target: T1, proteasome subunit β5 (Homo sapiens, UniProt P28074); test: Proteasome inhibition IC50 measurements in RPMI 8226 cells, substrate Suc-LLVY-AMC (β5); assay type: cell-based
T1 construct: Cells were then collected and lysed; endogenous in cells; host or cells: RPMI 8226
Source text: Our preliminary series of analogs (FIG. 3), including the natural product glidobactin A (2), were synthesized by largely the same route (FIG. 2).^13 Desoxycepafungin (38) was synthesized from Boc-Lys(Boc)-OH to assess the role of the macrocycle hydroxylation in 1 towards proteasome inhibition. The saturated cepafungin analog 39 was designed to address the possible role of rigidity in the tail fragment induced by the diene seen in many natural cepafungins and glidobactins. An analog bearing unsaturation at its macrocyclic lysine was envisioned to provide a head-to-head comparison between the cepafungin and syringolin A (4) macrocyclic core. […] Proteasome subunit β5 IC50 values were determined in situ in RPMI 8226 cells (FIG. 3). In close agreement with prior measurement of β5 IC50 for natural 1 and 2 in purified yeast proteasome,^8 in our hands the additional branching methyl in 1 indeed leads to ca. 5-fold improved IC50 compared to 2 in RPMI 8226 cells. […] Likewise, saturation of the fatty acid fragment in 39 causes ca. 14-fold decrease in β5 inhibition. This preliminary series of analogs highlighted that the macrocyclic hydroxylation, fatty acid unsaturation, and terminal lipid functionality are critical for potent proteasome inhibitory activity.
(§1) Cellular assays were performed with human multiple myeloma cell line RPMI 8226. First, relative inhibition of proteasome subunits β5 and β2 for all analogs and the natural product was measured at 30 nM compound concentration. Following incubation of the analogs in cell culture for 6 hours, cells were lysed and fluorogenic subunit-specific peptide substrates Suc-LLVY-AMC (β5) or Ac-RLR-AMC (β2) were incubated with the lysates, and fluorescence readings provided relative proteasome activity levels with respect to DMSO (FIG. 6A). Next, cytotoxicity screening was performed at 30 nM and 100 nM concentrations for better coverage of dynamic range (FIG. 6B). […] Therefore, the improved cytotoxicity of phenyl cepafungin 50 likely results from a more pronounced loss of β5 function in RPMI 8226 cells. This drastic increase in proteasome inhibition may be due to pi-stacking of the lipid tail phenyl ring with the β6 subunit residues Tyr106 and/or Tyr5. The β2 subunit-bound natural product has residues Tyr102 and Phe103 on the adjacent β3 subunit oriented further away from the terminal lipid methyl groups, and presumably would not facilitate pi-stacking to the extent possible at the adjacent β6 subunit (see FIG. 4, FIG. 9). […]
(§2) RPMI 8226 cells were seeded in a 6-well plate (1,000,000 cells/well) in cell culture media supplemented with indicated compounds (1,000× stock in DMSO) or DMSO and cultured for 6 hours. […] The plates were incubated at 37° C. for one hour and fluorescence was read at A360ex/A460em. […]

[2] = test system: upregulated protein expression; test: Global proteomics experiments; assay type: cell-based, human
β2 and β5 subunits = settings: introduction, no test specified; cited from earlier work
20S proteasome = molecular target: T2, 20S proteasome (Homo sapiens, UniProt P28074+Q99436); test: In-gel competitive profiling and in situ competitive LC-MS/MS based chemoproteomics; assay type: cell-based; settings: human MM cells, alkyne-tagged probe analog
T2 construct: endogenous in cells
T2 sequence (P28074 60-263): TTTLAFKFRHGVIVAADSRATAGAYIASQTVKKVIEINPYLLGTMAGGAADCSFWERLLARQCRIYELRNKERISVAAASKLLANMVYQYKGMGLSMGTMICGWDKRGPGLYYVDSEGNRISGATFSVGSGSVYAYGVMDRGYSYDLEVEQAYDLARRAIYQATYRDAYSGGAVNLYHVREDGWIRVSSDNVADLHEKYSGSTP
T2 sequence (Q99436 44-277): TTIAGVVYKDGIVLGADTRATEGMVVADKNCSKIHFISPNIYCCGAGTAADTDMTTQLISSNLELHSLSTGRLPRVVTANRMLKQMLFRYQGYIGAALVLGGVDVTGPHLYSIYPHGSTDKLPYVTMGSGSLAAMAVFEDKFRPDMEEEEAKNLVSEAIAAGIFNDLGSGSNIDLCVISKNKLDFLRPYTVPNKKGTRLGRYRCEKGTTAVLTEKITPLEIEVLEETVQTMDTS
Source text: Prior to our work, a major knowledge gap in the bioactivity of cepafungin was its engagement of the proteasome in human MM cells and selectivity in targeting the proteasome over a multitude of other proteases. To address this, an alkyne-tagged probe analog was synthesized by our chemoenzymatic route and used for classical chemoproteomics studies.

[3] = test system: human MM (RPMI8226, U266, H929) and MCL (JeKo-1, HBL2, Mino) cell lines; test: MM and MCL cytotoxicity EC50 measurements, cell line panel; assay type: cell-based; settings: 3 MM and 3 MCL cell lines, 48 hours
Procedure: (§3) Finally, we sought to compare the new lead analog (50) against the clinical drug bortezomib. It has been shown that in addition to MM, mantle cell lymphoma (MCL) is also sensitive to proteasome inhibition. Indeed, bortezomib itself is FDA-approved for the treatment of MCL.^23 Therefore, we compared 50 and bortezomib in 3 different cell lines of both MM and MCL (FIG. 6E, FIG. 7).
(§4) Cells were seeded in a 96-well plate (20,000 cells/well) in cell culture media supplemented with indicated compounds (1,000× stock in DMSO) or DMSO and cultured for 48 hours. Toxicity was determined using the WST-1 assay (Roche) according to the protocol of the manufacturer. (n=3)

proteasome subunit β2 = test: Proteasome inhibition IC50 measurements in RPMI 8226 cells, substrate Ac-RLR-AMC (β2); assay type: cell-based, human; settings: 6 hours
Procedure: as §1, with “Tyr5.” for “Tyr5. The β2 subunit-bound natural product has residues Tyr102 and Phe103 on the adjacent β3 subunit oriented further away from the terminal lipid methyl groups, and presumably would not facilitate pi-stacking to the extent possible at the adjacent β6 subunit (see FIG. 4, FIG. 9).”
as §2

RPMI 8226 cells [4] = test: RPMI8226 cytotoxicity screening (WST-1); assay type: cell-based, human; settings: 30 nM and 100 nM, cytotoxicities track with proteasome inhibition at 30 nM
Procedure: Cellular assays were performed with human multiple myeloma cell line RPMI 8226. First, relative inhibition of proteasome subunits β5 and β2 for all analogs and the natural product was measured at 30 nM compound concentration. Following incubation of the analogs in cell culture for 6 hours, cells were lysed and fluorogenic subunit-specific peptide substrates Suc-LLVY-AMC (β5) or Ac-RLR-AMC (β2) were incubated with the lysates, and fluorescence readings provided relative proteasome activity levels with respect to DMSO (FIG. 6A). Next, cytotoxicity screening was performed at 30 nM and 100 nM concentrations for better coverage of dynamic range (FIG. 6B). […] Therefore, the improved cytotoxicity of phenyl cepafungin 50 likely results from a more pronounced loss of β5 function in RPMI 8226 cells. This drastic increase in proteasome inhibition may be due to pi-stacking of the lipid tail phenyl ring with the β6 subunit residues Tyr106 and/or Tyr5. The β2 subunit-bound natural product has residues Tyr102 and Phe103 on the adjacent β3 subunit oriented further away from the terminal lipid methyl groups, and presumably would not facilitate pi-stacking to the extent possible at the adjacent β6 subunit (see FIG. 4, FIG. 9). […] These combined modifications were made in hopes that the effects of both substitutions would be additive.
[…] Toxicity was determined using the WST-1 assay (Roche) according to the protocol of the manufacturer. (n=3)

RPMI 8226 cells [5] = test: RPMI 8226 cytotoxicity EC50 measurements (WST-1); assay type: cell-based, human
Procedure: (§5) RPMI 8226 cells were seeded in a 96-well plate (20,000 cells/well) in cell culture media supplemented with indicated compounds (1,000× stock in DMSO) or DMSO and cultured for 48 hours. Toxicity was determined using the WST-1 assay (Roche) according to the protocol of the manufacturer. (n=3)
as §5, with “Cytotoxicity of phenyl cepafungin (50) and hybrid analog (S39) in RPMI 8226 RPMI” for “RPMI”

U266 = test: MM and MCL cytotoxicity EC50 measurements, U266; assay type: cell-based; settings: Homo sapiens, U-266; U266, 48 hours, WST-1
Procedure: as §3, §4

| β2 subunit IC50 compared with 1, in words (proteasome subunit β2) | fold lower β5 IC50 than 1 / fold greater β5 inhibitory activity (proteasome subunit β5; RPMI 8226 cells, 6 hours) [fold] | Structure (SMILES) | fold improvement of β5-subunit inhibition compared to glidobactin A (2) [1] | fold improved β5 IC50 of 1 compared to 2 (proteasome subunit β5; in situ in RPMI 8226 cells) | fold improved β5 inhibition of 1 compared to desoxy-cepafungin analog 38 (proteasome subunit β5; in situ in RPMI 8226 cells) | overlap in upregulated protein expression between 1 and bortezomib [2] | proteasome inhibitory activity, in words (β2 and β5 subunits) | selectivity of proteasome engagement, in words (20S proteasome) | selectivity of proteasome engagement, in words (20S proteasome; listed as cepafungin) | cytotoxicity compared with bortezomib, in words [3] | potency compared with parent natural product 1 in screening (FIG. 6A, 6B) (RPMI 8226 cells [4]) | EC50 (RPMI 8226 cells [5]; Homo sapiens, RPMI 8226, 48 hours, WST-1) [nM] | fold greater cytotoxicity than parent cepafungin I 1 (RPMI 8226 cells [5]; RPMI 8226, EC50 comparison) | EC50 (U266) [nM] |
| --- | --- | --- | --- | --- | --- | --- | --- | --- | --- | --- | --- | --- | --- | --- |
|  |  | CC(C)CCCCC/C=C/C=C\C(=O)N[C@H](C(=O)N[C@H]1C[C@H](O)CCNC(=O)/C=C\[C@H](C)NC1=O)[C@@H](C)O [compound 1, cepafungin I] | ca. 5 fold | ca. 5 fold | ca. 11 fold | high degree of overlap in upregulated protein expression | most potent proteasome inhibitor among the syrbactins; also recorded: low nanomolar inhibitory activity | exceptional selectivity | exceptional selectivity towards several proteasome subunits |  |  |  |  |  |
|  |  | CC(C)C[C@H](NC(=O)[C@H](Cc1ccccc1)NC(=O)c1cnccn1)B(O)O [bortezomib, reference compound] |  |  |  | high degree of overlap in upregulated protein expression |  |  |  | low-nanomolar cytotoxicity |  |  |  |  |
| roughly similar IC50 | 7 | C[C@H]1/C=C/C(=O)NCC[C@H](O)C[C@H](NC(=O)[C@@H](NC(=O)/C=C/C=C/CCCCCc2ccccc2)[C@@H](C)O)C(=O)N1 [compound 50, (2E,4E)-N-((2S,3R)-3-hydroxy-1-(((5S,8S,10S,E)-10-hydroxy-5-methyl-2,7-dioxo-1,6-diazacyclododec-3-en-8-yl)amino)-1-oxobutan-2-yl)-10-phenyldeca-2,4-dienamide] |  |  |  |  |  |  |  | similarly low-nanomolar cytotoxicity in all cell lines as bortezomib except for U266 | more potent than the parent natural product 1; also recorded: most potent | 3 | 4-5 fold | ~20 |
